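The concentration for 50% growth inhibition is given as GI50. At the TGI there is no net growth.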
Legend:
Assay in all cases: DTP human tumour cell line panel, 384-well format
[1] = system: HCC-2998 colon
[2] = system: EKVX NSCLC
[3] = system: SNB-75 CNS
[4] = system: RPMI-8226 leukemia
[5] = system: NCI/ADR-RES ovarian
[6] = system: COLO 205 colon
[7] = system: SN12C renal
[8] = system: SNB-19 CNS
[9] = system: MDA-MB-231 breast
[10] = system: MOLT-4 leukemia
[11] = system: BT-549 breast
[12] = system: SK-MEL-5 melanoma
[13] = system: LOX IMVI melanoma
[14] = system: HOP-92 NSCLC
[15] = system: M14 melanoma
[16] = system: A549 NSCLC
[17] = system: SF-295 CNS
[18] = system: ACHN renal
[19] = system: HCT-15 colon
[20] = system: SF-539 CNS
[21] = system: T-47D breast
[22] = system: SK-OV-3 ovarian
[23] = system: HT29 colon
[24] = system: SK-MEL-28 melanoma
[25] = system: KM12 colon
[26] = system: NCI-H226 lung
[27] = system: MALME-3M melanoma
[28] = system: MDA-MB-468 breast
[29] = system: SW-620 colon

SMILES: CN1C(=O)C(C)(C)Oc2c(-c3cn(C)c(=O)c4[nH]ccc34)cc(S(C)(=O)=O)cc21
- TGI [1]: 468 nM
- GI50 [2]: 1510 nM
- TGI [2]: 11100 nM
- GI50 [3]: 343 nM
- TGI [3]: 7570 nM
- GI50 [4]: 23.4 nM
- TGI [4]: 152 nM
- GI50 [5]: 5650 nM
- TGI [5]: 45900 nM
- GI50 [6]: 228 nM
- TGI [6]: 1390 nM
- GI50 [7]: 669 nM
- TGI [7]: 3550 nM
- GI50 [8]: 423 nM
- TGI [8]: 7130 nM
- GI50 [9]: 168 nM
- TGI [9]: 2260 nM
- GI50 [10]: 220 nM
- TGI [10]: 1010 nM
- GI50 [11]: 164 nM
- TGI [11]: 785 nM
- GI50 [12]: 178 nM
- TGI [12]: 1140 nM
- GI50 [13]: 157 nM
- TGI [13]: 327 nM
- GI50 [14]: 149 nM
- TGI [14]: 1850 nM
- GI50 [15]: 364 nM
- TGI [15]: 16300 nM
- GI50 [16]: 389 nM
- TGI [16]: 7080 nM
- GI50 [17]: 1050 nM
- TGI [17]: 7540 nM
- GI50 [18]: 1480 nM
- TGI [18]: 11000 nM
- GI50 [19]: 340 nM
- TGI [19]: 2270 nM
- GI50 [20]: 274 nM
- TGI [20]: 1050 nM
- GI50 [21]: 156 nM
- TGI [21]: 865 nM
- GI50 [22]: 237 nM
- TGI [22]: 1560 nM
- GI50 [23]: 196 nM
- TGI [23]: 7840 nM
- GI50 [24]: 347 nM
- TGI [24]: 4210 nM
- GI50 [25]: 330 nM
- TGI [25]: 1910 nM
- GI50 [26]: 223 nM
- TGI [26]: 1710 nM
- GI50 [27]: 115 nM
- TGI [27]: 731 nM
- GI50 [28]: 114 nM
- TGI [28]: 439 nM
- GI50 [29]: 1280 nM
- TGI [29]: 5610 nM

From PubChem BioAssay (NCI)
